Experimental data from US20240277873A1, “ULTRABRIGHT […] PROBES FOR DETECTION AND IMAGING” (Nanyang Technological University, priority 2021, published 2024).

Experiments:
neutrophils [1] = assay: Cytotoxicity assay (MTS), neutrophils; format: cell-based; conditions: 2.5 to 50 μM, 24 h
Description: (§1) Neutrophils and normal mouse embryonic fibroblasts (3T3) cells were seeded in 96-well plates which have 5×10^4 cells per well and incubated for 24 h. Then, BTPDNe at different concentrations (2.5, 5, 10, 20 and 50 μM) was added into the neutrophils and 3T3 cells, respectively. After 24 h incubation, MTS assay was added to the cell for 4 h incubation. After incubation, the absorbance of MTS at 490 nm was recorded by using a microplate reader (SpectraMax M, Switzerland). The assays were performed in five sets for each concentration.

IMQ-induced psoriasis = assay: Real-time chemiluminescence imaging in IMQ-induced psoriasis model; format: in vivo, BALB/c mice; conditions: 3 min post-topical administration of BTPDNe, microneedle
Description: The control group was treated with Vaseline (50 mg/d) and the IMQ-treatment group was applied with IMQ cream (60 mg/d, 5%) once a day. […] Probe BTPDNe (10 uM, 1 mM in DMSO) was thoroughly mixed with Aquaphor (˜10 mg) and applied for psoriasis imaging, followed by poly(methyl methacrylate) microneedle treatment for 1 min. Then, chemiluminescent signals at different time-points (0, 3, 5, 10, 15, 30, 45 and 60 min) after probe-treatment were recorded using IVIS system bioluminescence with acquiring time of 180 s. Until the third day, all the mice were sacrificed to collect tissue and blood for further experiments (hematoxylin and eosin (H&E) staining and flow cytometry analysis) as described in Example 11.

neutrophils [2] = assay: In vitro cell chemiluminescent imaging; format: cell-based
Description: 3T3 cells and immune cells (neutrophils, DC cells, T-cells and macrophage) (10^4 cells) were seeded into confocal cell culture dishes (dia. 15 mm) and incubated for 24 h. […] After incubation, the medium was removed, and the cells were washed thrice. Chemiluminescence imaging of the cells were recorded on LX71 inverted microscope (Olympus), which was equipped with infinity 3-1 (Lumenera) CCD camera. During imaging, the excitation light was blocked and the images were recorded under an open filter, with an acquisition time of 60 s.

NE = target: T1, NE (Homo sapiens, UniProt P08246); assay: Chemiluminescence and fluorescence changes of BTPDNe and MPDNe in the presence of NE (response, selectivity, LOD, half-life); format: biochemical
T1 sequence (P08246 30-267): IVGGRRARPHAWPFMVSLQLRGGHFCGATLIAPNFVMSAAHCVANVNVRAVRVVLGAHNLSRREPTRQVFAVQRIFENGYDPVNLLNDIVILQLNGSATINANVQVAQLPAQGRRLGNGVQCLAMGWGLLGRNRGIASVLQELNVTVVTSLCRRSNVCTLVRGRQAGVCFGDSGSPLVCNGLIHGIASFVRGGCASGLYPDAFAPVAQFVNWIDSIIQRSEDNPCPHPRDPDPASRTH
Description: Chemiluminescence and fluorescence changes of BTPDNe (20 μM) were determined in the presence of NE (0.1 U/ml), other different enzymes (˜0.1 U/mL, APN, ALP, Cas-3, cat B, GGT, β-gal and NTR) in 50 mM Tris, 1 M NaCl, 0.05% (w/v) Brij-35, pH 7.5 at 37° C. after 30 min incubation.
Chemiluminescence and fluorescence changes of BTPDNe and MPDNe (20 μM) in the presence of NE (0.1 U/mL), or other different enzymes (˜0.1 U/mL, APN, ALP, Cas-3, Cat B, GGT, β-gal, NTR, CatG and PR3) were tested after 30 min incubation in 50 mM Tris, 1 M NaCl, 0.05% (w/v) Brij-35, pH 7.5 at 37° C.
To determine the LOD for NE enzyme detection, the chemiluminescence of BTPDNe was recorded in 50 mM Tris, 1 M NaCl, 0.05% (w/v) Brij-35, pH 7.5 at 37° C. with different concentrations of NE (0, 0.05, 0.1, 0.5, 1, and 2 U/ml) for 30 min incubation. Then, initial reaction velocity was calculated.

3T3 cells = assay: Cytotoxicity assay (MTS), 3T3 cells; format: cell-based, mouse; conditions: 2.5 to 50 μM, 24 h
Description: as §1

LPS-treated mice = assay: Real-time chemiluminescence imaging in LPS-induced peritonitis model; format: in vivo
Description: The model was induced by intraperitoneal injection of LPS (15 ng) in 100 μL of PBS or PBS only as a control. Probe BTPDNe (40 μM·Kg^−1) or MPDNe (40 μM·Kg^−1) in PBS (10 mM, pH 7.4) containing 10% DMSO was intraperitoneally injected in mice. Then, chemiluminescent signals at different post-injection timepoints (0, 5, 10, 20, 45 and 60 min) were recorded using IVIS system bioluminescence with acquiring time of 120 s. After 3 h, the peritoneum was flushed with PBS (5 mL)+EDTA (5 mM). After erythrocyte lysis, neutrophils from C57Bl/6 mice were stained with a PE-labeled CD. After treatment with LPS for 3 h, CD11c antibody and an APC-labeled Ly6G antibody were added to the neutrophils, and the neutrophils were analyzed for double-positive events using flow cytometry (BD Biosciences). Data analysis was performed using Flowjo V10. Neutrophils were gated as CD45+CD11b+Ly6G+cells after the exclusion of doublets.
Fluorescence and chemiluminescence in vivo imaging of the probes were measured by an IVIS spectrum imaging system. Chemiluminescence imaging of the cells was recorded on LX71 inverted microscope. Tissue slices were cut by Leica, Germany slicer and imaged by a Nikon ECLIPSE 80i microscope. The images of tissue sections and cells were recorded with a LSM800 confocal laser scanning microscope. The white light was provided by 150 W LED High Bay Thermo Light.

[3] = Blood test: chemiluminescence after incubation in healthy mouse blood; conditions: 20 μM, 30 min, 100 μL blood
Description: BTPDNe (20 μM) and MPDNe (20 μM) were incubated for 30 min in healthy mouse blood (100 μL), respectively. Chemiluminescence intensities were measured by IVIS system bioluminescence with an acquisition time of 60 s.

COC1(c2ccc(-c3nc4ccccc4s3)c(OCc3ccc(NC(=O)[C@@H](NC(=O)[C@@H]4CCCN4C(=O)[C@H](C)NC(=O)[C@H](C)NC(C)=O)C(C)C)cc3)c2)OOC12C1CC3CC(C1)CC2C3 (stereo partly drawn) [BTPDNe]
cytotoxicity (cell viability, MTS) (neutrophils [1]): no cytotoxicity
chemiluminescent signal from dorsal skins vs control group, day 1 (IMQ-induced psoriasis; day 1 post IMQ): 3.1 fold
chemiluminescent signal from dorsal skins vs control group, day 2 (IMQ-induced psoriasis; day 2 post IMQ): 3.7 fold
chemiluminescent signal from dorsal skins vs control group, day 3 (IMQ-induced psoriasis; day 3 post IMQ): 2.9 fold
differentiation of neutrophils from other immune cells (neutrophils [2]; neutrophil, DC, macrophage, CTL, 3T3, 20 μM): differentiated neutrophils from other immune cells
activated chemiluminescence signal in neutrophils, 30 min (neutrophils [2]; probe 10 μM, incubation 30 min): 63.0 pixels
activated chemiluminescence signal in neutrophils, 1 h (neutrophils [2]; probe 10 μM, incubation 1 h): 42.7 pixels
selectivity towards NE over other enzymes (NE; APN, ALP, Cas-3, cat B, GGT, furin, β-gal, NTR, PR3, CatG (~0.1 U/mL)): high selectivity
fluorescence increase after incubation with NE (NE; at 515 nm, probe 20 μM, NE 0.1 U/mL, 30 min): 20.1 fold
chemiluminescence enhancement after incubation with NE (NE; probe 20 μM, NE 0.1 U/mL, 50 mM Tris, 1 M NaCl, 0.05% Brij-35, pH 7.5, 37° C., 30 min, BTPDNe at 515 nm, MPDNe at 550 nm): ~42.3 fold
cytotoxicity (cell viability, MTS) (3T3 cells): no cytotoxicity
chemiluminescent signal relative to MPDNe-injected mice (LPS-treated mice; 20 min post-treatment of probes): ~2.15 fold
chemiluminescent signals after 60 min (LPS-treated mice; LPS-treated mice, 60 min post injection): could still be observed
maximum chemiluminescent signal enhancement in peritoneum relative to negative control group (LPS-treated mice; LPS-treated mice, 3 h post LPS, i.p. probe 40 μM·kg^−1): ~9.2 fold
chemiluminescence intensities after incubation with healthy mouse blood [3]: Negligible
